Results: patent US7153855B2, “Pyrazolopyridinyl pyrimidine therapeutic compounds” (SmithKline Beecham Corporation, priority 2001, dated 2006)

Test system: HSV-1
Assay: HSV-1 infection of Vero 76 cells, viral DNA detected by hybridization capture (chemiluminescence)
Format: cell-based
Settings: Human alphaherpesvirus 1; HSV-1 in Vero 76 cells, MOI=0.001, compounds incubated 40–48 hours at 37° C.; read-out: IC50
Description: In the following example, “MEM” means Minimal Essential Media; “FBS” means Fetal Bovine Serum; “NP40” and “Igepal” are detergents; “MOI” means Multiplicity of Infection; “NaOH” means sodium hydroxide; “MgCl2” means magnesium chloride; “dATP” means deoxyadenosine 5′ triphosphate; “dUTP” means deoxyuridine 5′ triphosphate; “dCTP” means dexoxycytidine 5′ triphosphate; “dGTP” means deoxyguanosine 5′ triphosphate; “GuSCN” means Guanidinium thiocyanate; “EDTA” means ethylenediamine tetraacetic acid; “TE” means Tris-EDTA; “SCC” means sodium chloride/sodium citrate; “APE” means a solution of ammonia acetate, ammonia phosphate, EDTA; “PBS” means phosphate buffered saline; and “HRP” means horseradish peroxidase.
Vero 76 cells were maintained in MEM with Earle's salts, L-glutamine, 8% FBS (Hyclone, A-1111-L) and 100 units/mL Penicillin-100 μg/mL Streptomycin. For assay conditions, FBS was reduced to 2%. Cells are seeded into 96-well tissue culture plates at a density of 5×10^4 cells/well after being incubated for 45 min at 37° C. in the presence of HSV-1 or HSV-2 (MOI=0.001). Test compounds are added to the wells and the plates are incubated at 37° C. for 40–48 hours. Cell lysates are prepared as follows: media was removed and replaced with 150 μL/well 0.2 N NaOH with 1% Igepal CA 630 or NP-40. Plates were incubated up to 14 days at room temperature in a humidified chamber to prevent evaporation.
For the detection probe, a gel-purified, digoxigenin-labeled, 710-bp PCR fragment of the HSV UL-15 sequence was utilized. PCR conditions included 0.5 μM primers, 180 μM dTTP, 20 μM dUTP-digoxigenin (Boehringer Mannheim 1558706), 200 μM each of dATP, dCTP, and dGTP, 1×PCR Buffer II (Perkin Elmer), 2.5 mM MgCl2, 0.025 units/μL of AmpliTaq Gold polymerase (Perkin Elmer), and 5 ng of gel-purified HSV DNA per 100 μL Extension conditions were 10 min at 95° C., followed by 30 cycles of 95° C. for 1 min, 55° C. for 30 sec, and 72° C. for 2 min. The amplification was completed with a 10-min incubation at 72° C. Primers were selected to amplify a 728 bp probe spanning a section of the HSV1 UL15 open reading frame (nucleotides 249–977). Single-stranded transcripts were purified with Promega M13 Wizard kits. The final product was mixed 1:1 with a mixture of 6 M GuSCN, 100 mM EDTA and 200 μg/mL herring sperm DNA and stored at 4° C.
The capture DNA plasmid (HSV UL13 region in pUC) was linearized by cutting with Xba I, denatured for 15 min at 95° C. and diluted immediately into Reacti-Bind DNA Coating Solution (Pierce, 17250, diluted 1:1 with TE buffer, pH 8) at 1 ng/μL 75 μL/well were added to Corning (#3922 or 9690) white 96-well plates and incubated at room temperature for at least 4 hrs before washing twice with 300 μL/well 0.2×SSC/0.05% Tween-20 (SSC/T buffer). The plates were then incubated overnight at room temperature with 150 μL/well 0.2 N NaOH, 1% IGEPAL and 10 μg/mL herring sperm DNA.
Twenty-seven (27) μL of cell lysate was combined with 45 μL of hybridization solution (final concentration: 3M GuSCN, 50 mM EDTA, 100 μg/ml salmon sperm DNA, 5×Denhardt's solution, 0.25×APE, and 5 ng of the digoxigenin-labeled detection probe). APE is 1.5 M NH4-acetate, 0.15 M NH4H2 phosphate, and 5 mM EDTA adjusted to pH 6.0. Mineral oil (50 μL) was added to prevent evaporation. The hybridization plates were incubated at 95° C. for 10 minutes to denature the DNA, then incubated at 42° C. overnight. The wells were washed 6× with 300 μL/well SSC/T buffer then incubated with 75 μL/well anti-digoxigenin-HRP-conjugated antibody (Boehringer Mannheim 1207733, 1:5000 in TE) for 30 min at room temperature. The wells were washed 6× with 300 μL/well with PBS/0.05% Tween-20 before 75 μL/well SuperSignal LBA substrate (Pierce) was added. The plates were incubated at room temperature for 30 minutes and chemiluminescence was measured in a Wallac Victor reader.
The following results were obtained for HSV-1.

Structure (SMILES)	IC50 [nM]
COc1cccc(-c2nn3c(N(C)C)cccc3c2-c2ccnc(NC3CCCC3)n2)c1 [Example 53, 3-[2-(Cyclopentylamino)-4-pyrimidinyl]-2-(3-methoxyphenyl)-N,N-dimethylpyrazolo[1,5-a]pyridin-7-amine]	1100
Oc1cccc(-c2nn3c(NC4CCCC4)cccc3c2-c2ccnc(NC3CCCC3)n2)c1 [Example 54, 3-{7-(Cyclopentylamino)-3-[2-(cyclopentylamino)-4-pyrimidinyl]pyrazolo[1,5-a]pyridin-2-yl}phenol]	650
c1cc(OCC2CC2)cc(-c2nn3c(NC4CCCC4)cccc3c2-c2ccnc(NC3CCCC3)n2)c1 [Example 55, N-Cyclopentyl-3-[2-(cyclopentylamino)-4-pyrimidinyl]-2-[3-(cyclopropylmethoxy)phenyl]pyrazolo[1,5-a]pyridin-7-amine]	100
Fc1cccc(-c2nn3c(NC4CCCC4)cccc3c2-c2ccnc(NC3CCCC3)n2)c1 [Example 56, N-Cyclopentyl-3-[2-(cyclopentylamino)-4-pyrimidinyl]-2-(3-fluorophenyl)pyrazolo[1,5-a]pyridin-7-amine]	200
Clc1cccc(-c2nn3c(NC4CCCC4)cccc3c2-c2ccnc(NC3CCCC3)n2)c1 [Example 57, 2-(3-Chlorophenyl)-N-cyclopentyl-3-[2-(cyclopentylamino)-4-pyrimidinyl]pyrazolo[1,5-a]pyridin-7-amine]	200
COc1ccc(-c2nn3c(NC4CCCC4)cccc3c2-c2ccnc(NC3CC3)n2)cc1 [Example 58, N-Cyclopentyl-3-[2-(cyclopropylamino)-4-pyrimidinyl]-2-(4-methoxyphenyl)pyrazolo[1,5-a]pyridin-7-amine]	400
COc1ccc(-c2nn3c(NCCN4CCOCC4)cccc3c2-c2ccnc(NC3CCCC3)n2)cc1 [Example 59, 3-[2-(Cyclopentylamino)-4-pyrimidinyl]-2-(4-methoxyphenyl)-N-[2-(4-morpholinyl)ethyl]pyrazolo[1,5-a]pyridin-7-amine]	400
COc1ccc(-c2nn3c(NC4CC4)cccc3c2-c2ccnc(NC3CCCC3)n2)cc1 [Example 60, 3-[2-(Cyclopentylamino)-4-pyrimidinyl]-N-cyclopropyl-2-(4-methoxyphenyl)pyrazolo[1,5-a]pyridin-7-amine]	400
COc1ccc(-c2nn3c(N4CCOCC4)cccc3c2-c2ccnc(NC3CCCC3)n2)cc1 [Example 61, N-Cyclopentyl-4-[2-(4-methoxyphenyl)-7-(4-morpholinyl)pyrazolo[1,5-a]pyridin-3-yl]-2-pyrimidinamine]	200
COCCNc1cccc2c(-c3ccnc(NC4CCCC4)n3)c(-c3ccc(OC)cc3)nn12 [Example 62, 3-[2-(Cyclopentylamino)-4-pyrimidinyl]-N-(2-methoxyethyl)-2-(4-methoxyphenyl)pyrazolo[1,5-a]pyridin-7-amine]	100
COc1ccc(-c2nn3c(N4CCOCC4)cccc3c2-c2ccnc(NC3CC3)n2)cc1 [Example 63, N-Cyclopropyl-4-[2-(4-methoxyphenyl)-7-(4-morpholinyl)pyrazolo[1,5-a]pyridin-3-yl]-2-pyrimidinamine]	1200
COCCNc1cccc2c(-c3ccnc(NC4CC4)n3)c(-c3ccc(OC)cc3)nn12 [Example 64, 3-[2-(Cyclopropylamino)-4-pyrimidinyl]-N-(2-methoxyethyl)-2-(4-methoxyphenyl)pyrazolo[1,5-a]pyridin-7-amine]	300
COc1ccc(-c2nn3c(NCCN4CCOCC4)cccc3c2-c2ccnc(NC3CC3)n2)cc1 [Example 65, 3-[2-(Cyclopropylamino)-4-pyrimidinyl]-2-(4-methoxyphenyl)-N-[2-(4-morpholinyl)ethyl]pyrazolo[1,5-a]pyridin-7-amine]	500
COc1ccc(-c2nn3c(NC4CC4)cccc3c2-c2ccnc(NC3CC3)n2)cc1 [Example 66, N-Cyclopropyl-3-[2-(cyclopropylamino)-4-pyrimidinyl]-2-(4-methoxyphenyl)pyrazolo[1,5-a]pyridin-7-amine]	1300
Oc1ccc(-c2nn3c(NC4CC4)cccc3c2-c2ccnc(NC3CCCC3)n2)cc1 [Example 67, 4-[3-[2-(Cyclopentylamino)-4-pyrimidinyl]-7-(cyclopropylamino)pyrazolo[1,5-a]pyridin-2-yl]phenol]	300
Oc1ccc(-c2nn3c(NC4CCCC4)cccc3c2-c2ccnc(NC3CC3)n2)cc1 [Example 68, 4-{7-(Cyclopentylamino)-3-[2-(cyclopropylamino)-4-pyrimidinyl]-pyrazolo[1,5-a]pyridin-2-yl}phenol]	1200
Oc1ccc(-c2nn3c(NC4CC4)cccc3c2-c2ccnc(NC3CC3)n2)cc1 [Example 69, 4-{7-(Cyclopropylamino)-3-[2-(cyclopropylamino)-4-pyrimidinyl]-pyrazolo[1,5-a]pyridin-2-yl}phenol]	2300
c1cc(NC2CC2)n2nc(-c3ccc(OCC4CC4)cc3)c(-c3ccnc(NC4CCCC4)n3)c2c1 [Example 70, 3-[2-(Cyclopentylamino)-4-pyrimidinyl]-N-cyclopropyl-2-[4-(cyclopropylmethoxy)phenyl]pyrazolo[1,5-a]pyridin-7-amine]	600
C=CCOc1ccc(-c2nn3c(NC4CCCC4)cccc3c2-c2ccnc(NC3CC3)n2)cc1 [Example 71, 2-[4-(Allyloxy)phenyl]-N-cyclopentyl-3-[2-(cyclopropylamino)-4-pyrimidinyl]pyrazolo[1,5-a]pyridin-7-amine]	500
c1cc(NC2CC2)n2nc(-c3ccc(OCC4CC4)cc3)c(-c3ccnc(NC4CC4)n3)c2c1 [Example 72, N-Cyclopropyl-3-[2-(cyclopropylamino)-4-pyrimidinyl]-2-[4-(cyclopropylmethoxy)phenyl]pyrazolo[1,5-a]pyridin-7-amine]	1400
C=CCOc1ccc(-c2nn3c(NC4CC4)cccc3c2-c2ccnc(NC3CC3)n2)cc1 [Example 73, 2-[4-(Allyloxy)phenyl]-N-cyclopropyl-3-[2-(cyclopropylamino)-4-pyrimidinyl]pyrazolo[1,5-a]pyridin-7-amine]	2000
CCCCNc1nccc(-c2c(-c3ccc(N4CCOCC4)cc3)nn3c(NCCCC)cccc23)n1 [Example 75, N-Butyl-3-[2-(butylamino)pyrimidin-4-yl]-2-(4-morpholin-4-ylphenyl)pyrazolo[1,5-a]pyridin-7-amine]	27000
COC(=O)CNc1cccc2c(-c3ccnc(NC4CCCC4)n3)c(-c3ccc(OC)cc3)nn12 [Example 79, Methyl N-[3-[2-(cyclopentylamino)pyrimidin-4-yl]-2-(4-methoxyphenyl)pyrazolo[1,5-a]pyridin-7-yl]glycinate]	2500
COc1ccc(-c2nn3c(NCCCCN)cccc3c2-c2ccnc(NC3CCCC3)n2)cc1 [Example 81, N-[3-[2-(Cyclopentylamino)pyrimidin-4-yl]-2-(4-methoxyphenyl)-pyrazolo[1,5-a]pyridin-7-yl]butane-1,4-diamine]	600
